In PMC6002448, “Evaluation of the effect of the new methoxy-stilbenes on expression of receptors and enzymes involved in estrogen synthesis in cancer breast cells” (Molecular and Cellular Biochemistry, 2017):

Target: T1, CYP19 (aromatase) (Homo sapiens, UniProt P11511)
T1 construct: gene CYP19A1; human recombinant CYP19
T1 sequence (P11511 1-503): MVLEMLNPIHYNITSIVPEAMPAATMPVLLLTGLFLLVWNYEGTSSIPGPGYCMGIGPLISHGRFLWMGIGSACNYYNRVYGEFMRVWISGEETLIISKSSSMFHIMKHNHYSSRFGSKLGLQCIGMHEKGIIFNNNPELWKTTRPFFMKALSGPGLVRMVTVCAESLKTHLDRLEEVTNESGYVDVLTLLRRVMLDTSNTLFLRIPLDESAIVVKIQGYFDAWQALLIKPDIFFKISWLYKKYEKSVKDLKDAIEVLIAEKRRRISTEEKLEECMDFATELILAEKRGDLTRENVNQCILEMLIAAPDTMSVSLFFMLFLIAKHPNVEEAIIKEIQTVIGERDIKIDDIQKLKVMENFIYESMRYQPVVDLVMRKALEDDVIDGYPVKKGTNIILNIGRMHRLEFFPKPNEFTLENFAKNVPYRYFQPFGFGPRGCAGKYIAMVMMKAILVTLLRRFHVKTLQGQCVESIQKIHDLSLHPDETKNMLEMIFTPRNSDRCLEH
Assay: fluorometric CYP19/MFC inhibitor screening kit (recombinant enzyme)
Assay type: biochemical

## COc1ccccc1/C=C/c1ccc(OC)c(OC)c1 [3MS, 3,4,2′-trimethoxy-trans-stilbene]
  IC50: ~85 µM
